The NIST ThermoML archive (doi:10.1021/acs.jced.7b00106)
Where “and” joins values, the source holds several entries; their conditions need not be identical. Equal entries are not always repeated. ± gives the expanded uncertainty stated by the source.

Details: Hot wire method

FC(F)(F)/C=C/Cl [(E)-1-chloro-3,3,3-trifluoroprop-1-ene]
Details | thermal conductivity
403.42 K, 5979 kPa, Liquid | 0.05892 ± 0.0013 W/m/K
403.43 K, 18618 kPa, Liquid | 0.06817 ± 0.00095 W/m/K
403.44 K, 18637 kPa, Liquid | 0.06808 ± 0.0018 W/m/K
403.48 K, 4696 kPa, Liquid | 0.0577 ± 0.00073 W/m/K
403.48 K, 4700 kPa, Liquid | 0.05772 ± 0.00068 W/m/K
403.49 K, 9102 kPa, Liquid | 0.06156 ± 0.0028 W/m/K
403.49 K, 9108 kPa, Liquid | 0.06159 ± 0.0025 W/m/K
403.53 K, 3569 kPa, Liquid | 0.05653 ± 0.0008 W/m/K
403.54 K, 3575 kPa, Liquid | 0.05665 ± 0.0026 W/m/K
403.54 K, 15778 kPa, Liquid | 0.06628 ± 0.00074 W/m/K
403.54 K, 15782 kPa, Liquid | 0.06631 ± 0.0011 W/m/K
403.58 K, 7083 kPa, Liquid | 0.05991 ± 0.001 W/m/K
403.58 K, 7093 kPa, Liquid | 0.05996 ± 0.00074 W/m/K
403.59 K, 2636 kPa, Liquid | 0.0556 ± 0.00085 W/m/K
403.6 K, 2641 kPa, Liquid | 0.05565 ± 0.0018 W/m/K
420.8 K, 2579 kPa, Fluid (supercritical or subcritical phases) | 0.02548 ± 0.0011 W/m/K
420.81 K, 2579 kPa, Fluid (supercritical or subcritical phases) | 0.02537 ± 0.012 W/m/K
420.9 K, 2520 kPa, Fluid (supercritical or subcritical phases) | 0.02499 ± 0.0018 W/m/K and 0.02461 ± 0.011 W/m/K
420.92 K, 2579 kPa, Fluid (supercritical or subcritical phases) | 0.02548 ± 0.01 W/m/K and 0.02551 ± 0.0099 W/m/K
421 K, 2520 kPa, Fluid (supercritical or subcritical phases) | 0.02479 ± 0.005 W/m/K
421.01 K, 2519 kPa, Fluid (supercritical or subcritical phases) | 0.0248 ± 0.005 W/m/K
421.03 K, 2579 kPa, Fluid (supercritical or subcritical phases) | 0.02568 ± 0.0091 W/m/K
421.04 K, 2579 kPa, Fluid (supercritical or subcritical phases) | 0.02548 ± 0.0082 W/m/K
421.11 K, 2519 kPa, Fluid (supercritical or subcritical phases) | 0.02483 ± 0.012 W/m/K
421.11 K, 2520 kPa, Fluid (supercritical or subcritical phases) | 0.02479 ± 0.012 W/m/K
421.15 K, 2469 kPa, Fluid (supercritical or subcritical phases) | 0.02425 ± 0.0067 W/m/K and 0.02441 ± 0.0042 W/m/K
421.16 K, 2579 kPa, Fluid (supercritical or subcritical phases) | 0.02588 ± 0.013 W/m/K
421.16 K, 2580 kPa, Fluid (supercritical or subcritical phases) | 0.02588 ± 0.012 W/m/K
421.21 K, 2403 kPa, Fluid (supercritical or subcritical phases) | 0.02382 ± 0.0043 W/m/K
421.24 K, 2520 kPa, Fluid (supercritical or subcritical phases) | 0.02505 ± 0.0044 W/m/K
421.25 K, 2307 kPa, Fluid (supercritical or subcritical phases) | 0.02316 ± 0.0027 W/m/K and 0.02317 ± 0.0027 W/m/K
421.25 K, 2520 kPa, Fluid (supercritical or subcritical phases) | 0.02484 ± 0.0096 W/m/K
421.29 K, 2203 kPa, Fluid (supercritical or subcritical phases) | 0.02266 ± 0.0062 W/m/K
421.29 K, 2204 kPa, Fluid (supercritical or subcritical phases) | 0.02272 ± 0.0035 W/m/K
421.29 K, 2468 kPa, Fluid (supercritical or subcritical phases) | 0.02448 ± 0.012 W/m/K
421.3 K, 2469 kPa, Fluid (supercritical or subcritical phases) | 0.02444 W/m/K
421.32 K, 2099 kPa, Fluid (supercritical or subcritical phases) | 0.02221 ± 0.0044 W/m/K
421.33 K, 2099 kPa, Fluid (supercritical or subcritical phases) | 0.02225 ± 0.004 W/m/K
421.35 K, 2403 kPa, Fluid (supercritical or subcritical phases) | 0.02395 ± 0.0049 W/m/K and 0.02391 ± 0.0048 W/m/K
421.36 K, 1997 kPa, Fluid (supercritical or subcritical phases) | 0.02198 ± 0.0083 W/m/K and 0.02199 ± 0.0082 W/m/K
421.39 K, 2307 kPa, Fluid (supercritical or subcritical phases) | 0.02322 ± 0.0055 W/m/K
421.39 K, 2519 kPa, Fluid (supercritical or subcritical phases) | 0.02527 W/m/K
421.39 K, 2520 kPa, Fluid (supercritical or subcritical phases) | 0.02527 W/m/K
421.4 K, 1861 kPa, Fluid (supercritical or subcritical phases) | 0.0216 ± 0.0048 W/m/K
421.4 K, 1862 kPa, Fluid (supercritical or subcritical phases) | 0.02165 ± 0.0044 W/m/K
421.44 K, 1724 kPa, Fluid (supercritical or subcritical phases) | 0.02132 ± 0.002 W/m/K
421.44 K, 2203 kPa, Fluid (supercritical or subcritical phases) | 0.02269 ± 0.0039 W/m/K
421.44 K, 2469 kPa, Fluid (supercritical or subcritical phases) | 0.02473 ± 0.0088 W/m/K and 0.02459 ± 0.0083 W/m/K
421.45 K, 1723 kPa, Fluid (supercritical or subcritical phases) | 0.02131 ± 0.0021 W/m/K
421.45 K, 2204 kPa, Fluid (supercritical or subcritical phases) | 0.02274 ± 0.0038 W/m/K
421.48 K, 2100 kPa, Fluid (supercritical or subcritical phases) | 0.02256 ± 0.0052 W/m/K and 0.02228 ± 0.0058 W/m/K
421.51 K, 2403 kPa, Fluid (supercritical or subcritical phases) | 0.02407 ± 0.0069 W/m/K and 0.02398 ± 0.0066 W/m/K
421.52 K, 1998 kPa, Fluid (supercritical or subcritical phases) | 0.02205 ± 0.0031 W/m/K and 0.02199 ± 0.0032 W/m/K
421.53 K, 1561 kPa, Fluid (supercritical or subcritical phases) | 0.02097 ± 0.0043 W/m/K
421.54 K, 1562 kPa, Fluid (supercritical or subcritical phases) | 0.02106 ± 0.0038 W/m/K
421.56 K, 2307 kPa, Fluid (supercritical or subcritical phases) | 0.02344 ± 0.0063 W/m/K and 0.02334 ± 0.0064 W/m/K
421.57 K, 1862 kPa, Fluid (supercritical or subcritical phases) | 0.02171 ± 0.0022 W/m/K
421.57 K, 1863 kPa, Fluid (supercritical or subcritical phases) | 0.02167 ± 0.0023 W/m/K
421.58 K, 1402 kPa, Fluid (supercritical or subcritical phases) | 0.02076 ± 0.0031 W/m/K
421.59 K, 1402 kPa, Fluid (supercritical or subcritical phases) | 0.02091 ± 0.0021 W/m/K
421.61 K, 2204 kPa, Fluid (supercritical or subcritical phases) | 0.02283 ± 0.0044 W/m/K
421.62 K, 1724 kPa, Fluid (supercritical or subcritical phases) | 0.02136 ± 0.0017 W/m/K
421.62 K, 2203 kPa, Fluid (supercritical or subcritical phases) | 0.02292 ± 0.0051 W/m/K
421.62 K, 2616 kPa, Liquid | 0.0497 ± 0.007 W/m/K
421.63 K, 1724 kPa, Fluid (supercritical or subcritical phases) | 0.0214 ± 0.0018 W/m/K
421.63 K, 2616 kPa, Liquid | 0.04969 ± 0.0076 W/m/K
421.64 K, 1220 kPa, Fluid (supercritical or subcritical phases) | 0.02082 ± 0.0018 W/m/K
421.64 K, 1221 kPa, Fluid (supercritical or subcritical phases) | 0.02077 ± 0.0041 W/m/K
421.66 K, 2099 kPa, Fluid (supercritical or subcritical phases) | 0.02245 ± 0.0047 W/m/K
421.66 K, 2100 kPa, Fluid (supercritical or subcritical phases) | 0.02244 ± 0.0047 W/m/K
421.67 K, 2403 kPa, Fluid (supercritical or subcritical phases) | 0.02364 ± 0.0028 W/m/K
421.68 K, 1031 kPa, Fluid (supercritical or subcritical phases) | 0.02073 ± 0.00097 W/m/K
